Test results from publication PMC3558798 (British Journal of Clinical Pharmacology, 2012).
Read-outs that look alike come from different tables or passages of the source.

Key:
[1] = system: activated partial thromboplastin time (aPTT); assay: Food effect study: aPTT; format: in vivo, human; details: 3 h after 10 mg oral tablet
clinical [2] = details: human, plasma; for half-life: oral; for AUC(0-inf) / AUC(0-t) / Cmax / Tmax: po; for Tmax: Median tmax, range over doses
[3] = system: modified prothrombin time (mPT); assay: Single ascending-dose study: modified prothrombin time; format: in vivo, human
[4] = Single ascending-dose study: safety assessments; format: in vivo, human
prothrombin time (PT) = assay: Food effect study: PT; format: in vivo, human; details: 3 h after 10 mg oral tablet
[5] = Food effect study: safety assessments; format: in vivo, human
[6] = oral; cited from earlier work
[7] = 10 mg, high fat, high calorie meal vs fasted
clinical [8] = details: human, plasma, oral, 10 mg; for AUC(0-t): AUC(0,t) Adjusted geometric mean; for AUC(0-inf): AUC(0,∞) Adjusted geometric mean; for Cmax: Cmax Adjusted geometric mean
[9] = Single ascending-dose study: template bleeding time; format: in vivo, human; details: between pre-dose and 3.5 h post-dose
venous thrombosis = details: at doses that preserved haemostasis; cited from earlier work
[10] = system: international normalized ratio (INR); assay: Food effect study: INR; format: in vivo, human; details: for INR Mean (SD) change from baseline: 3 h after 10 mg oral tablet
[11] = system: activated partial thromboplastin time (aPTT); assay: Single ascending-dose study: aPTT; format: in vivo, human
thromboembolic events = details: patients who had received total knee or hip replacement surgery; cited from earlier work
[12] = system: international normalized ratio (INR); assay: Single ascending-dose study: INR; format: in vivo, human; details: for mean maximum INR: 0–24 h post-dose
[13] = high calorie, high fat breakfast; cited from earlier work
[14] = cited from earlier work
[15] = single 10 mg dose following standard high calorie, high fat meal
[16] = single 20 mg dose following a similar meal

Compound: COc1ccc(-n2nc(C(N)=O)c3c2C(=O)N(c2ccc(N4CCCCC4=O)cc2)CC3)cc1 [apixaban, 1-(4-methoxyphenyl)-7-oxo-6-(4-(2-oxopiperidin-1-yl)phenyl)-4,5,6,7-tetrahydro-1H -pyrazolo[3,4-c]pyridine-3-carboxamide]
- aPTT Mean (SD) ([1]; fasted, n = 23): 32.96 (3.59)
- aPTT Mean (SD) change from baseline ([1]; fasted, n = 23): 3.05 (2.59)
- aPTT Mean (SD) ([1]; fed, n = 22): 31.55 (3.02)
- aPTT Mean (SD) change from baseline ([1]; fed, n = 22): 2.90 (2.21)
- half-life (clinical [2]; 10 mg, half-life, single doses, overall conclusion): ~12 h
- half-life (clinical [2]; t1/2, range, doses that provided sufficient data to characterize the terminal elimination phase (i.e. 5–50 mg)): 7 to 27 h
- AUC(0-inf) (clinical [2]; 0.5 mg): 61.9 ng·h/mL
- AUC(0-t) (clinical [2]; 0.5 mg): 52.7 ng·h/mL
- Cmax (clinical [2]; 0.5 mg): 9.1 ng/mL
- AUC(0-inf) (clinical [2]; 1 mg): 174 ng·h/mL
- AUC(0-t) (clinical [2]; 1 mg): 163 ng·h/mL
- Cmax (clinical [2]; 1 mg): 23.5 ng/mL
- AUC(0-inf) (clinical [2]; 2.5 mg): 438 ng·h/mL
- AUC(0-t) (clinical [2]; 2.5 mg): 421 ng·h/mL
- Cmax (clinical [2]; 2.5 mg): 52.5 ng/mL
- AUC(0-inf) (clinical [2]; 5 mg): 1020 ng·h/mL
- AUC(0-t) (clinical [2]; 5 mg): 977 ng·h/mL
- Cmax (clinical [2]; 5 mg): 105 ng/mL
- AUC(0-inf) (clinical [2]; 10 mg): 1300 ng·h/mL
- AUC(0-t) (clinical [2]; 10 mg): 1270 ng·h/mL
- Cmax (clinical [2]; 10 mg): 176 ng/mL
- AUC(0-inf) (clinical [2]; 25 mg): 4010 ng·h/mL
- AUC(0-t) (clinical [2]; 25 mg): 3870 ng·h/mL
- Cmax (clinical [2]; 25 mg): 365 ng/mL
- AUC(0-inf) (clinical [2]; 50 mg): 7560 ng·h/mL
- AUC(0-t) (clinical [2]; 50 mg): 7100 ng·h/mL
- Cmax (clinical [2]; 50 mg): 685 ng/mL
- Tmax (clinical [2]; oral solution (0.5–2.5 mg)): 1.5 to 1.8 h
- Tmax (clinical [2]; oral tablet (5–50 mg)): 2.5 to 3.3 h
- mean % change from baseline in maximum mPT ([3]; 2.5 mg dose): 35.0%
- mean % change from baseline in maximum mPT ([3]; 5 mg dose): 42.9%
- mean % change from baseline in maximum mPT ([3]; 10 mg dose): 87.1%
- mean % change from baseline in maximum mPT ([3]; 25 mg dose): 135.3%
- mean % change from baseline in maximum mPT ([3]; 50 mg dose): 187.1%
- peak mPT increase from baseline ([3]; after a 50 mg dose): 2.9 fold
- subjects with bleeding-related AEs ([4]; haematochezia at 25 mg (one), haematuria at 50 mg (two), all mild): Three subjects had bleeding-related AEs
- serious AEs or major bleeding-related events ([4]; single oral doses 0.5–50 mg): no serious AEs or major bleeding-related events
- dose-limiting AEs ([4]; single oral doses of up to 50 mg): No dose-limiting AEs were observed
- PT Mean (SD) (prothrombin time (PT); fasted, n = 23): 14.99 (1.24)
- PT Mean (SD) change from baseline (prothrombin time (PT); fasted, n = 23): 1.39 (0.89)
- PT Mean (SD) (prothrombin time (PT); fed, n = 22): 14.66 (0.97)
- PT Mean (SD) change from baseline (prothrombin time (PT); fed, n = 22): 1.30 (0.85)
- elevated alanine transaminase level ([5]; one subject, discontinued, 10 mg): 3 × upper limit of normal [ULN]
- elevations in aspartate aminotransferase and gamma-glutamyl transferase levels ([5]; same one subject, 10 mg): < 2 × ULN
- bleeding-related AEs ([5]; single 10 mg doses): no bleeding-related AEs
- serious AEs or major bleeding-related events ([5]; single 10 mg doses, fed and fasted): no serious AEs or major bleeding-related events
- bioavailability [6]: ~50%
- increase in median tmax with food [7]: 1 h
- AUC(0-t) (clinical [8]; 10 mg fasted): 1730 ng·h/mL
- AUC(0-t) (clinical [8]; 10 mg fed): 1810 ng·h/mL
- AUC(0-inf) (clinical [8]; 10 mg fasted): 1790 ng·h/mL
- AUC(0-inf) (clinical [8]; 10 mg fed): 1870 ng·h/mL
- Cmax (clinical [8]; 10 mg fasted): 151 ng/mL
- Cmax (clinical [8]; 10 mg fed): 165 ng/mL
- half-life (clinical [8]; half-life, food effect study): ~11.5 h
- change in template bleeding time [9]: ≤ 1 min
- antithrombotic effects (venous thrombosis): potent antithrombotic effects
- individual INR (highest) ([10]; 10 mg, fed and fasted): ≤ 2.0
- time for INR, aPTT and PT to return to baseline ([10]; 10 mg, fed and fasted): ≤ 24 h
- INR Mean (SD) change from baseline ([10]; fasted, n = 23): 0.23 (0.13)
- INR Mean (SD) change from baseline ([10]; fed, n = 22): 0.20 (0.12)
- mean % change from baseline in maximum aPTT ([11]; 25 mg dose): 25.7%
- mean maximum aPTT ([11]; 25 mg dose, baseline 30.4 s): 38.2 s
- mean % change from baseline in maximum aPTT ([11]; 50 mg dose): 23.1%
- mean maximum aPTT ([11]; 50 mg dose, baseline 28.6 s): 35.1 s
- peak aPTT increase from baseline ([11]; after a 50 mg dose): 1.2 fold
- dose proportionality of Cmax, AUC(0,∞) and AUC(0,t) (0.5–50 mg): increased approximately proportionally to dose
- Inter-subject variability, %CV for Cmax and AUC (across all doses, regardless of formulation): approximately 30%
- prevention of thromboembolic events vs enoxaparin 40 mg daily (thromboembolic events): superior to enoxaparin
- mean % change from baseline in maximum INR ([12]; 10 mg dose): 19.5%
- mean % change from baseline in maximum INR ([12]; 25 mg dose): 44.1%
- mean maximum INR ([12]; 25 mg dose): 1.45
- mean % change from baseline in maximum INR ([12]; 50 mg dose): 55.8%
- mean maximum INR ([12]; 50 mg dose): 1.71
- peak INR increase from baseline ([12]; after a 50 mg dose): 1.6 fold
- time until changes in pharmacodynamic parameters were evident ([12]; following a single dose, clotting assay parameters (INR, aPTT and mPT)): less than 1 h

Compound: [H]/N=C(/N)c1ccc(NCc2nc3cc(C(=O)N(CCC(=O)O)c4ccccn4)ccc3n2C)cc1 [dabigatran]
- effect of food on extent of absorption [13]: did not affect the extent of absorption

Compound: O=C(NC[C@H]1CN(c2ccc(N3CCOCC3=O)cc2)C(=O)O1)c1ccc(Cl)s1 [rivaroxaban]
- increase in AUC(0,∞) with food [14, 15]: 28%
- increase in Cmax with food [14, 15]: 41%
- increase in AUC(0,∞) with food [14, 16]: 23%
- increase in Cmax with food [14, 16]: 74%
